The values that follow come from ChEMBL document CHEMBL2150986, “Synthesis and biological evaluation of 1-benzylidene-3,4-dihydronaphthalen-2-one as a new class of microtubule-targeting agents” (J Med Chem, 2012).

Series [1] relates to Mus musculus. As to the kind of experiment: Toxicity in ICR mouse assessed as mortality at 50 mg/kg, ip administered on day 1. Particulars: in vivo. The format is organism-based. Further details: dose 50 mg/kg, route intraperitoneal.
For series [2], the system named is CCRF-CEM. The series can be described thus: Cytotoxicity against human CEM cells after 72 hrs by MTT assay. The format is functional, cell-based.
The subject of series [3] is Mus musculus. The series can be described thus: Toxicity in nude BALB/c mouse xenografted with human HT-29 cells assessed as mortality at 30 mg/kg, ip qd after 21 days. The format is organism-based. Set-up: dose 30 mg/kg, route intraperitoneal. Conditions: in vivo, 504 h.
Series [4] deals with Mus musculus. As to the kind of experiment: Toxicity in nude BALB/c mouse xenografted with human HT-29 cells assessed as mortality at 50 mg/kg, ip qd after 21 days. It counts as organism-based. Further details: dose 50 mg/kg, route intraperitoneal. Particulars: in vivo, 504 h.
Series [5] has as its system HT-29. As to the kind of experiment: Antitumor activity against human HT-29 cells xenografted in nude BALB/c mouse assessed as decrease in tumor volume at 30 mg/kg, ip qd measured on day 21 relative to vehicle-treated control. It counts as functional. Conditions: route intraperitoneal.
For series [6], the system named is HT-29. The series can be described thus: Antitumor activity against human HT-29 cells xenografted in nude BALB/c mouse assessed as decrease in tumor volume at 50 mg/kg, ip qd measured on day 21 relative to vehicle-treated control. The format is functional. Particulars: route intraperitoneal.
Series [7] concerns Mus musculus. As to the kind of experiment: Toxicity in nude BALB/c mouse xenografted with human HT-29 cells assessed as body weight change at 30 mg/kg, ip qd after 21 days (reference value: 2.7 g). Further details: dose 30 mg/kg, route intraperitoneal. Particulars: in vivo, 504 h. It counts as organism-based.
Series [8] has as its system Mus musculus. The series can be described thus: Toxicity in nude BALB/c mouse xenografted with human HT-29 cells assessed as body weight change at 50 mg/kg, ip qd after 21 days (reference value: 2.7 g). It counts as organism-based. Further details: dose 50 mg/kg, route intraperitoneal. Conditions: in vivo, 504 h.
Series [9] relates to Mus musculus. The series can be described thus: Toxicity in nude BALB/c mouse xenografted with human HT-29 cells assessed as effect on WBC count at 30 mg/kg, ip qd after 21 days (reference value: 25.38 +/- 0.22 x 10^3 mm'-3). It counts as organism-based. Further details: dose 30 mg/kg, route intraperitoneal. Conditions: in vivo, 504 h.
The subject of series [10] is Mus musculus. The series can be described thus: Toxicity in nude BALB/c mouse xenografted with human HT-29 cells assessed as effect on WBC count at 50 mg/kg, ip qd after 21 days (reference value: 25.38 +/- 0.22 x 10^3 mm'-3). Particulars: in vivo, 504 h. Set-up: dose 50 mg/kg, route intraperitoneal. It counts as organism-based.
For series [11], the system named is Mus musculus. As to the kind of experiment: Toxicity in nude BALB/c mouse xenografted with human HT-29 cells assessed as effect on lymphocyte count at 30 mg/kg, ip qd after 21 day (reference value: 15.88 +/- 0.41 x 10^3 mm'-3). Particulars: in vivo, 504 h. Set-up: dose 30 mg/kg, route intraperitoneal. It counts as organism-based.
The subject of series [12] is Mus musculus. As to the kind of experiment: Toxicity in nude BALB/c mouse xenografted with human HT-29 cells assessed as effect on lymphocyte count at 50 mg/kg, ip qd after 21 days (reference value: 15.88 +/- 0.41 x 10^3 mm'-3). The format is organism-based. Further details: dose 50 mg/kg, route intraperitoneal. Particulars: in vivo, 504 h.
Series [13] deals with Mus musculus. As to the kind of experiment: Toxicity in nude BALB/c mouse xenografted with human HT-29 cells assessed as effect on platelet count at 30 mg/kg, ip qd after 21 days (reference value: 1509 +/- 34 x 10^3 mm'-3). It counts as organism-based. Further details: dose 30 mg/kg, route intraperitoneal. Particulars: in vivo, 504 h.
In series [14] the test system is Mus musculus. As to the kind of experiment: Toxicity in nude BALB/c mouse xenografted with human HT-29 cells assessed as effect on platelet count at 50 mg/kg, ip qd after 21 days (reference value: 1509 +/- 34 x 10^3 mm'-3). It counts as organism-based. Set-up: dose 50 mg/kg, route intraperitoneal. Conditions: in vivo, 504 h.
In series [15] the test system is Mus musculus. The series can be described thus: Toxicity in nude BALB/c mouse xenografted with human HT-29 cells assessed as effect on ALT level at 30 mg/kg, ip qd after 21 days (reference value: 28 +/- 0.4 IU/L). It counts as organism-based. Set-up: dose 30 mg/kg, route intraperitoneal. Conditions: in vivo, 504 h.
For series [16], the system named is Mus musculus. As to the kind of experiment: Toxicity in nude BALB/c mouse xenografted with human HT-29 cells assessed as effect on ALT level at 50 mg/kg, ip qd after 21 days (reference value: 28 +/- 0.4 IU/L). It counts as organism-based. Further details: dose 50 mg/kg, route intraperitoneal. Particulars: in vivo, 504 h.
Series [17] deals with Mus musculus. The series can be described thus: Toxicity in nude BALB/c mouse xenografted with human HT-29 cells assessed as effect on ALP level at 30 mg/kg, ip qd after 21 days (reference value: 107.6 +/- 0.8 IU/L). The format is organism-based. Further details: dose 30 mg/kg, route intraperitoneal. Particulars: in vivo, 504 h.
For series [18], the system named is Mus musculus. The series can be described thus: Toxicity in nude BALB/c mouse xenografted with human HT-29 cells assessed as effect on ALP level at 50 mg/kg, ip qd after 21 days (reference value: 107.6 +/- 0.8 IU/L). The format is organism-based. Further details: dose 50 mg/kg, route intraperitoneal. Conditions: in vivo, 504 h.
In series [19] the test system is Mus musculus. The series can be described thus: Toxicity in nude BALB/c mouse xenografted with human HT-29 cells assessed as change in kidney weight at 50 mg/kg, ip qd after 21 days relative to vehicle-treated control. The format is organism-based. Set-up: dose 50 mg/kg, route intraperitoneal. Conditions: in vivo, 504 h.
The subject of series [20] is Mus musculus. The series can be described thus: Toxicity in nude BALB/c mouse xenografted with human HT-29 cells assessed as change in liver weight at 50 mg/kg, ip qd after 21 days relative to vehicle-treated control. The format is organism-based. Further details: dose 50 mg/kg, route intraperitoneal. Particulars: in vivo, 504 h.
Series [21] deals with Mus musculus. As to the kind of experiment: Toxicity in nude BALB/c mouse xenografted with human HT-29 cells assessed as change in spleen weight at 50 mg/kg, ip qd after 21 days relative to vehicle-treated control. It counts as organism-based. Further details: dose 50 mg/kg, route intraperitoneal. Particulars: in vivo, 504 h.
Series [22] has as its system Mus musculus. As to the kind of experiment: Toxicity in ICR mouse assessed as body weight loss at 50 mg/kg, ip administered on day 1 measured for 10 days relative to vehicle-treated control. It counts as organism-based. Further details: dose 50 mg/kg, route intraperitoneal. Particulars: in vivo, 240 h.
In series [23] the test system is HCT-116. The series can be described thus: cells. Particulars: Homo sapiens, HCT-116, 72 h.
For series [24], the system named is MDA-MB-435. As to the kind of experiment: cells. Particulars: Homo sapiens, MDA-MB-435, 72 h.
Description: Cytotoxicity against human MDA-MB-435 cells after 72 hrs by MTT assay

On to `COc1ccc(/C=C\c2cc(OC)c(OC)c(OC)c2)cc1O` [COMBRETASTATIN A4], for which the Activity entry in series [1] is reported as “Non-toxic”; in [3], “Non-toxic”; in [4], “Non-toxic”; in [7], 1.7 g; in [8], 1.8 g; in series [9], 19.34 ×10³ /mm3. In addition, the Activity in series [10] turned out to be 12.09 ×10³ /mm3; in [11], 10.62 ×10³ /mm3; in series [12], 4.14 ×10³ /mm3; in series [13], 1923 ×10³ /mm3; in [14], 2206 ×10³ /mm3; in series [15] it was 25 IU/L. Moreover, the Activity in series [16] is listed as 66.3 IU/L; in series [17], 105.3 IU/L; in [18], 149.3 IU/L; in series [19] it was “Toxic”; in [20], “Toxic”; in series [21], “Toxic”. In series [22], the Activity result is on record as “Toxic”. Besides, the 50% inhibitory concentration (IC50) in series [2], in series [23] and in series [24] was 1 nM throughout. Moreover, the figures for the T/C in series [5] and in [6] were 53% and 47%, respectively.
